From patent US12054482B2, “TLR8 agonist” (CHIA TAI TIANQING PHARMACEUTICAL GROUP CO., LTD., priority 2018, dated 2024)
pEC50: −log10 of the molar value. Structures can show the parent of a compound that is named as a salt. Where two headings read alike, the source gives them in different places.

System: human peripheral blood mononuclear cells (hPBMCs)
Experiment: Cytokine induction in human peripheral blood mononuclear cells
Format: cell-based
Conditions: PBMC, hPBMC, 24 hours
From the text: Experimental Example 2: Experimental Procedure for Peripheral Blood Mononuclear Cell
TLR8 is a receptor for the innate immune system to sense exogenous pathogens, and can recognize exogenous viral single-stranded RNA and cause the release of a series of cytokines such as TNF-α, IL-12, IFN-γ to elicit an antiviral immune response; TLR7 is another receptor for the innate immune system to sense exogenous pathogens and, when activated, produces primarily such antiviral cytokines as IFN-α. In this experiment, a potential compound of TLR8 agonist was used to stimulate human peripheral blood mononuclear cells (hPBMCs), and the levels of TNF-α, IL-12p40, IFN-γ and IFN-α above were measured to reflect the activation of the compound on TLR8 receptor and its selectivity for TLR8/TLR7.
The experimental procedures are as follows: • 1. Fresh blood of healthy volunteers was collected, and anticoagulated with an EDTA-K2 anticoagulation tube (catalog No. BD-8516542); • 2. hPBMC cells in the middle cloud-like layer were separated after Ficoll density gradient centrifugation, and washed twice with RPMI1640 (source: Gibco, catalog No. 224400-089) containing 10% serum, and the culture medium was resuspended to 10 mL. After the cells were counted with Vi-cell cell counter, the concentration of cell suspension was adjusted to 2×10^6/mL; • 3. The compound was dissolved in DMSO to 100 mM, and diluted to 50 mM and 2 mM with DMSO, which were served as initial concentrations. Then the solutions were each diluted sequentially in a 3-fold gradient (sample at a previous concentration (5 μL)+DMSO (10 μL)) to obtain 8 gradients. The resulting solutions were respectively subjected to 500-fold dilution with the culture medium to prepare the working solutions of the compound; • 4. 100 μL of hPBMC suspension and 100 μL of compound working solution were added to each well of a U-bottom 96-well plate, with the final concentrations being 2000 nM, 666.7 nM, 222.2 nM, 74.1 nM, 24.7 nM, 8.2 nM, 2.7 nM and 0.9 nM respectively, and incubated for 24 hours. Then the supernatants were collected and cryopreserved at −20° C. for the detection of TNF-α, IFN-γ and IL-12p40 cytokines. The other group of compound samples, with the final concentrations being 50 μM, 16.7 μM, 5.6 μM, 1.9 μM, 0.6 μM, 0.2 μM, 0.1 μM and 0.02 μM respectively, were incubated for 24 hours. […] IL-12p40, TNF-α and IFN-γ in the supernatant were detected by flow cytometric bead array (CBA); IFN-α in the cell supernatant was detected by enzyme-linked immuno sorbent assay (ELISA). • 6. Data analysis: compound activity: EC50 values (half maximal effect concentration) were analyzed using a GraphPad Prism software and the dose-response curves of the compound were fitted to calculate EC50 values for the compound.

pEC50 (CBA, TLR8 pathway cytokine, read-out: IFN-γ EC50): 7.54
pEC50 (CBA, TLR8 pathway cytokine, read-out: IL-12p40 EC50): 7.59
pEC50 (CBA, TLR8 pathway cytokine, read-out: TNF-α EC50): 6.98
pEC50 (ELISA, TLR7 pathway cytokine, read-out: IFN-α EC50): 5.55
SMILES: CCCC[C@](C)(Cc1ncn[nH]1)Nc1nc(N)nc2cnccc12 [Hydrochloride of Example 1]
